Tests used:
Test in all cases: relative viability (nuclei count vs DMSO), 5 days (fraction); higher = more cells survive
Bortezomib + Luminespib = compound: CC(C)C[C@H](NC(=O)[C@H](Cc1ccccc1)NC(=O)c1cnccn1)B(O)O [Bortezomib] + CCNC(=O)c1noc(-c2cc(C(C)C)c(O)cc2O)c1-c1ccc(CN2CCOCC2)cc1 [Luminespib] (partner 0.01 µM)
How it was run: (§1)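 Lung cancer cell lines in 1536-well plates were dosed by pin tool the day after seeding, either with one drug alone or with a fixed anchor-drug dose plus five library-drug doses (not always all listed) in √10 steps. After 5 days, cells were fixed and their nuclei stained in one step (final 0.05% Triton X-100, 1% formaldehyde, 1 ug/ml Hoechst), then counted on 4× images. Relative viability is the nuclei count in treated wells divided by that in vehicle wells. Values are medians of duplicate plates.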

Bortezomib + AZD7762 = compound: CC(C)C[C@H](NC(=O)[C@H](Cc1ccccc1)NC(=O)c1cnccn1)B(O)O [Bortezomib] + NC(=O)Nc1cc(-c2cccc(F)c2)sc1C(=O)N[C@H]1CCCNC1 [AZD7762] (partner 0.2 µM)
How it was run: as §1

[1] = compound: CC1=CC(=NN1)NC2=CC(=NC(=N2)/C=C/C3=CC=CC=C3)N4CCN(CC4)C + NC(=O)Nc1cc(-c2cccc(F)c2)sc1C(=O)N[C@H]1CCCNC1 [AZD7762] (partner 0.2 µM)
How it was run: as §1

Obatoclax + Pemetrexed = compound: COC1=CC(c2cc3ccccc3[nH]2)=N/C1=C\c1[nH]c(C)cc1C [Obatoclax] + Nc1nc2[nH]cc(CCc3ccc(C(=O)N[C@@H](CCC(=O)O)C(=O)O)cc3)c2c(=O)[nH]1 [Pemetrexed] (partner 0.2 µM)
How it was run: as §1

| Cell Line | relative viability (Bortezomib + Luminespib; first compound 0.0002 µM) | relative viability (Bortezomib + Luminespib; first compound 0.000632 µM) | relative viability (Bortezomib + Luminespib; first compound 0.002 µM) | relative viability (Bortezomib + Luminespib; first compound 0.006325 µM) | relative viability (Bortezomib + Luminespib; first compound 0.02 µM) | relative viability (Bortezomib + AZD7762; first compound 0.0002 µM) | relative viability (Bortezomib + AZD7762; first compound 0.000632 µM) | relative viability (Bortezomib + AZD7762; first compound 0.002 µM) | relative viability (Bortezomib + AZD7762; first compound 0.006325 µM) | relative viability (Bortezomib + AZD7762; first compound 0.02 µM) | relative viability ([1]; first compound 0.08 µM) | relative viability ([1]; first compound 0.253 µM) | relative viability ([1]; first compound 0.8 µM) | relative viability ([1]; first compound 2.53 µM) | relative viability ([1]; first compound 8 µM) | relative viability (Obatoclax + Pemetrexed; first compound 0.01 µM) | relative viability (Obatoclax + Pemetrexed; first compound 0.03162 µM) | relative viability (Obatoclax + Pemetrexed; first compound 0.3162 µM) | relative viability (Obatoclax + Pemetrexed; first compound 1 µM) | relative viability (Obatoclax + Pemetrexed; first compound 0.1 µM) |
| --- | --- | --- | --- | --- | --- | --- | --- | --- | --- | --- | --- | --- | --- | --- | --- | --- | --- | --- | --- | --- |
| LU99A | 0.227 | 0.178 | 0.231 | 0.24 | 0.184 | 0.373 | 0.344 | 0.381 | 0.437 | 0.163 | 0.298 | 0.376 | 0.252 | 0.14 | 0.0858 | 0.16 | 0.172 | 0.183 | 0.18 |  |
| LXF-289 | 0.68 | 0.598 | 0.639 | 0.138 | 0.074 | 1.12 | 1.03 | 1.19 | 0.11 | 0.0936 | 1.06 | 1.11 | 1.04 | 0.685 | 0.102 | 0.847 | 0.907 | 0.94 | 0.854 | 0.835 |
| NCI-H23 | 0.224 | 0.208 | 0.208 | 0.18 | 0.169 | 0.17 |  | 0.308 | 0.25 | 0.0879 | 0.246 | 0.186 | 0.23 | 0.094 | 0.101 | 0.665 | 0.636 | 0.561 | 0.468 | 0.717 |
| NCI-H322M | 0.736 |  | 0.729 | 0.386 | 0.322 | 0.539 | 0.636 | 0.654 | 0.385 | 0.393 | 0.555 | 0.6 | 0.615 | 0.403 | 0.302 | 0.683 | 0.609 | 0.655 | 0.625 | 0.632 |
| NCI-H358 | 0.285 |  | 0.349 | 0.307 | 0.0995 | 0.615 | 0.285 | 0.619 | 0.241 | 0.225 | 0.574 | 0.528 | 0.424 | 0.195 | 0.154 | 0.159 | 0.185 | 0.192 | 0.14 | 0.166 |
| NCI-H441 | 0.331 | 0.341 | 0.236 | 0.159 | 0.168 | 1.04 | 1.09 | 0.754 | 0.117 | 0.134 | 1.17 | 1.06 | 1.1 | 0.728 | 0.152 | 0.231 | 0.217 | 0.244 | 0.269 | 0.27 |
| NCI-H460 | 0.0335 | 0.0348 | 0.033 | 0.0295 | 0.0196 | 0.55 | 0.706 | 0.724 | 0.672 | 0.044 | 0.6 | 0.72 | 0.681 | 0.372 | 0.0422 | 0.0642 | 0.0576 | 0.0693 | 0.0648 | 0.0607 |
| NCI-H522 | 0.983 | 0.97 | 0.959 | 0.745 | 0.367 | 0.794 | 0.719 | 0.715 | 0.384 | 0.356 | 0.859 | 0.934 | 0.933 | 0.516 | 0.587 | 0.955 | 1 | 1.09 | 0.872 | 1.33 |

Reference: the supplement of paper PMC10307832
